Results reported in EP4818177A1, “TRICYCLIC DERIVATIVE INHIBITOR, AND PREPARATION METHOD AND USE THEREFOR” (Shanghai Hansoh Biomedical Co., Ltd., priority 2023, dated 2025).

Key:
[1] = biological target: T1, PRMT5/MEP50-MTA protein complex (Homo sapiens, UniProt O14744); assay: Thermal shift assay: change in melting temperature of the PRMT5/MEP50-MTA protein complex; format: binding; conditions: compound 8 µM, PRMT5/MEP50 2 µM, MTA 2 µM; Tm minus DMSO vehicle control
T1 construct: purchased Viva Biotech
Description: Test Example 1: Determination of the ability of the compounds of the present invention to improve the thermal stability (melting temperature) of the PRMT5/MEP50-MTA protein complex.
1. Experimental objective: The objective of this test example is to determine the ability of the compound to improve the thermal stability of the PRMT5/MEP50-MTA protein complex, resulting in an increase in the protein melting temperature. 2. Experimental instruments: Quantitative PCR instrument (Quantstudio6 Flex) was purchased from Life Technologies; pipettes were purchased from Eppendorf or Rainin. 3. Experimental reagents and consumables: PRMT5/MEP50 protein was prepared by Viva Biotech; HEPES was purchased from Thermo Fisher Scientific (Cat. No. 15630080); DTT was purchased from Sigma (Cat. No. 43816-10ml); sodium chloride was purchased from Invitrogen (Cat. No. AM9760G); Protein Thermal Shift™ Dye Kit was purchased from Thermo Fisher Scientific (Cat. No. 4461146); methylthioadenosine (MTA) was purchased from Sigma (Cat. No. D5011). 4. Experimental methods: In this experiment, the thermal shift method was used to measure the change in the melting temperature (Tm) of the PRMT5/MEP50-MTA protein complex before and after compound binding, thereby characterising the ability of the compound to improve the thermal stability of the PRMT5/MEP50-MTA protein complex. A solution containing 50 mM HEPES, 10 mM DTT, 2 µM MTA, SYPRO Orange and 250 mM NaCl was prepared as the experimental buffer. Human PRMT5/MEP50 protein was added to a final concentration of 2 µM, and the mixture was incubated at room temperature for 30 minutes. The above reaction mixture was aliquoted into 8-strip PCR tubes at 19.5 µL per tube. Then 0.5 µL of test compound or DMSO was added to each tube, providing a total reaction volume of 20 µL and a final compound concentration of 8 µM. 2.5% DMSO was set as the vehicle control. After incubation at room temperature for 10 minutes, the PCR tubes were placed in a PCR instrument, and the melt curve function was selected to measure the melting temperature of the PRMT5/MEP50-MTA protein complex in different treatment groups (heated from 25°C to 95°C, 0.03°C/s). 5. Experimental data processing method: The experimental data files from the PCR instrument were imported into the thermal shift software to obtain the melting temperature (Tm) for each treatment group.

[2] = system: MTAP Knockout HCT116 cells; assay: Cell proliferation inhibition (CellTiter-Glo), MTAP knockout cells; format: cell-based; conditions: for Selectivity: HCT116 versus MTAP Knockout HCT116; for IC50: Homo sapiens, HCT-116, MTAP Knockout HCT116 cells, 72-240 hours incubation, CellTiter-Glo
Description: (§1) Test Example 2: Determination of the inhibitory effect of the compounds of the present invention on the proliferation activity of HCT116 and MTAP Knockout HCT116 cells.
(§2) 1. Experimental objective: to determine the inhibitory effect of the compound on the proliferation activity of HCT116 wild-type and HCT116 MTAP knockout cells. 2. Experimental instruments: Centrifuge (Eppendorf 5810R); microplate reader (BioTek Synergy H1 or PerkinElmer Envision); pipette (Eppendorf or Rainin). 3. Experimental reagents: HCT116 and MTAP Knockout HCT116 cells were purchased from Nanjing Cobioer; Cell Titer-Glo was purchased from Promega (Cat. No. G7573); McCoy' 5A was purchased from Gibco (Cat. No. 12330031); FBS was purchased from Gibco (Cat. No. 10091148); PBS was purchased from Gibco (Cat. No. 10010023); trypsin was purchased from Gibco (Cat. No. 25200056); cell culture plates were purchased from Corning (Cat. No. 3610). 4. Experimental methods: HCT116 and MTAP Knockout HCT116 cells were cultured in McCoy'5A medium containing 10% FBS until an appropriate cell density was reached. The cells were then collected and adjusted to a suitable concentration using complete medium. The cell suspension was seeded into a 96-well plate at 90 µL per well and allowed to adhere overnight in a 37°C, 5% CO2 incubator. Compound solutions of various concentrations were prepared using DMSO and culture medium, with a vehicle control set. The compound solutions were added to the 96-well plate at 10 µL per well, and the plate was incubated in a 37°C, 5% CO2 incubator for an additional 72-240 hours. After incubation, CellTiter-Glo solution was added, and the mixture was mixed uniformly by shaking, followed by incubation in the dark for 10 to 30 minutes. Luminescence was measured using a Synergy H1 or Envision microplate reader. 5. Experimental data processing method: The inhibition rate was calculated using the luminescence signal values, and the concentrations along with the inhibition rates were subjected to non-linear regression curve fitting using Graphpad Prism software to obtain the IC50 values.

[3] = Pharmacokinetics in rats (plasma) after oral administration; conditions: male, SD, rat, 5 mg/kg
Description: Test Example 4: Determination of the pharmacokinetics of the compounds of the present invention in rats (plasma) after oral administration.
Study objective: SD rats were used as test animals to study the pharmacokinetic behaviour of the following example compounds in rats (plasma) after oral administration at a dose of 5 mg/kg. […] Test scheme 2.1 Test drugs: Vehicle formula: 0.5% CMC-Na (1% Tween 80); the examples of the present invention, prepared in house. 2.2 Test animals: 3 SD rats per group, male, purchased from Shanghai Bikai Keyi Biotechnology Co., Ltd., with animal license number (SCXK (Shanghai) 2018-0006, No.20180006037467). 2.3 Administration: 3 SD rats per group, male, were fasted overnight and then respectively administered PO at a dose of 5 mg/kg and a volume of 10 mL/kg. 2.4 Sample collection: 0.2 mL of blood was collected from the jugular vein of rats before administration and at 0, 0.25, 0.5, 1, 2, 4, 6, 8 and 24 h after administration, and placed in EDTA-K2test tubes, and the test tubes were centrifuged at 6,000 rpm at 4°C for 6 min to separate the plasma, which was stored at -80°C. The animals were fed 4 h after administration. 2.5 Sample treatment • 1) 160 uL of acetonitrile was added to 40 uL of plasma sample for precipitation, and after mixing, the mixture was centrifuged at 3,500 × g for 5-20 minutes. • 2) 100 uL of the treated supernatant solution was taken for LC/MS/MS analysis to determine the concentration of the test compounds. 2.6 Liquid phase analysis • Liquid phase conditions: Shimadzu LC-20AD pump; • Mass spectrometry conditions: AB Sciex API 4000 mass spectrometer; • Chromatographic column: phenomenex Gemiu 5 um C18 50 × 4.6 mm; • Mobile phase: solution A: 0.1% formic acid in water, solution B: methanol; • flow rate: 1.0 mL/min; Elution time: 0-4.0 min, with eluents as follows:
Experimental results and analysis: The main pharmacokinetic parameters were calculated using WinNonlin 8.2.

HCT116 wild-type cells = assay: Cell proliferation inhibition (CellTiter-Glo), wild-type cells; format: cell-based; conditions: Homo sapiens, HCT-116, HCT116 wild-type cells, 72-240 hours incubation
Description: as §1, §2

T1 sequence (O14744 whole entry): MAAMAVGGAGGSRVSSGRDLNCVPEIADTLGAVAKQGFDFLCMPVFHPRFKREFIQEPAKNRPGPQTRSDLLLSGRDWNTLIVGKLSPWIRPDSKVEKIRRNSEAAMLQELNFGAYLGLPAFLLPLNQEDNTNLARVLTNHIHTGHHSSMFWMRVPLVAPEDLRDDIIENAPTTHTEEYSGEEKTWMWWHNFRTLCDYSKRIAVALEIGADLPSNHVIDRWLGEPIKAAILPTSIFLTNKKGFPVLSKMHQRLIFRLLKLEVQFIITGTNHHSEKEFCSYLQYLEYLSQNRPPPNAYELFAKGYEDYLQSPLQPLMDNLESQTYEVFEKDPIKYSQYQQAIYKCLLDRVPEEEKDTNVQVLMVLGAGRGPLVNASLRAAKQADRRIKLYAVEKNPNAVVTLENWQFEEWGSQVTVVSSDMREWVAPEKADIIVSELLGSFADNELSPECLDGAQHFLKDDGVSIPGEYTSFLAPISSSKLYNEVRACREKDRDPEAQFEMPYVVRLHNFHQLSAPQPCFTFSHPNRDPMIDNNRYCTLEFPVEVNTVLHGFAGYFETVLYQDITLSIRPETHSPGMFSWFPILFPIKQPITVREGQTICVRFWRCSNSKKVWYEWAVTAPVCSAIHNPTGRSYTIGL
T1 sequence (Q9BQA1 whole entry partner): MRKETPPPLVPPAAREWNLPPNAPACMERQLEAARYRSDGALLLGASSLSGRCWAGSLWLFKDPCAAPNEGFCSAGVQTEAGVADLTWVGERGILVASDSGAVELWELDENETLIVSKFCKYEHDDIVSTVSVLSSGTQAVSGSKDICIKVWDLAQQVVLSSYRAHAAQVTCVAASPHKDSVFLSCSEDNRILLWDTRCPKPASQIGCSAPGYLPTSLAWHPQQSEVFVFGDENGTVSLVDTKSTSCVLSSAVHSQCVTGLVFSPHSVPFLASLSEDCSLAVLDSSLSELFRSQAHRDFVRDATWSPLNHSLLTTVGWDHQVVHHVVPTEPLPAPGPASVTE

Row | Compound | ΔTm at 8 µM [1] [°C] | Selectivity [2] | IC50 [2] [µM] | AUC(0-inf) [3] [ng·h/mL] | Cmax [3] [ng/mL] | MRT inf [3] [h] | Tmax [3] [h] | half-life [3] [h] | IC50 (HCT116 wild-type cells) [µM]
1 | CNN(C(=O)c1cc2c(cn1)nc(N)c1cnn(C)c12)[C@@H]1COc2cc(S(F)(F)(F)(F)F)ccc21 (single isomer, unassigned) [Example 375-P1] | 13 | 17 | 0.0079 | 2130 | 287 | 5 | 1.3 | 3.3 | 0.133
2 | [2H]C([2H])([2H])NN(C(=O)c1cc2c3c(c(N)nc2cn1)COC3)[C@H]1COCc2c1ccn1c(C(F)(F)F)cnc21 (stereo in doubt) [Example 371-P1, (R)-4-amino-N'-(methyl-d3)-N-(3-(trifluoromethyl)-7,10-dihydro-8H-imidazo[1,2-a]pyrano[3,4-c]pyridin-7-yl)-1,3-dihydrofuro[3,4-c][1,7]naphthyridine-8-carbohydrazide] | 11.6 | 121 | 0.0085 | 4800 | 1600 | 2.5 | 0.8 | 1.6 | 1.03
3 | CCNN(C(=O)c1cc2c(cc1C)nc(N)c1cncn12)C1COCc2nc(C(F)(F)F)ccc21 (stereo not shown) [Example 277, 4-Amino-N'-ethyl-7-methyl-N-(2-(trifluoromethyl)-5,8-dihydro-6H-pyrano[3,4-b]pyridin-5-yl)imidazo[1,5-a]quinoxaline-8-carbohydrazide] | 12.9 | 17 | 0.012 |  |  |  |  |  | 0.207
4 | CNN(C(=O)c1cc2c(cc1F)nc(N)c1cncn12)C1COCc2c1ccn1c(C(F)(F)F)cnc21 (stereo not shown) [Example 282, 4-Amino-7-fluoro-N'-methyl-N-(3-(trifluoromethyl)-7,10-dihydro-8H-imidazo[1,2-a]pyrano[3,4-c]pyridin-7-yl)imidazo[1,5-a]quinoxaline-8-carbohydrazide] | 12.3 | 145 | 0.017 |  |  |  |  |  | 2.45
5 | CNN(C(=O)c1cc2c3c(c(N)nc2cn1)COC3)[C@@H]1COCc2c1ccn1c(C(F)(F)F)cnc21 [Example 285, 4-Amino-N'-methyl-N-(3-(trifluoromethyl)-7,10-dihydro-8H-imidazo[1,2-a]pyrano[3,4-c]pyridin-7-yl)-1,3-dihydrofuro[3,4-c][1,7]diazanaphthalene-8-carbohydrazide] | 11.6 | 120 | 0.01 | 4980 | 999 | 4.8 | 0.8 | 4.2 | 1.15
6 | CNN(C(=O)c1cc2c3c(c(N)nc2cc1C)COC3)C1COCc2nc(C(F)(F)F)ccc21 (stereo not shown) [Example 307, 4-Amino-7-methyl-N'-methyl-N-(2-trifluoromethyl-5,8-dihydro-6H-pyrano[3,4-b]pyridin-5-yl)-1,3-dihydrofuro[3,4-c]quinoline-8-carbohydrazide] | 12.7 | 73 | 0.015 |  |  |  |  |  | 1.06
7 | [2H]C([2H])([2H])NN(C(=O)c1ccc2nc(N)c3cnn(C)c3c2c1)[C@@H]1COCc2nc(C(F)(F)F)ccc21 [Example 317] | 11.6 | 130 | 0.0039 | 739 | 240 | 2.8 | 1 | 1.9 | 0.508
8 | [2H]C([2H])([2H])NN(C(=O)c1ccc2nc(N)c3cnn(C)c3c2c1)C1([2H])COCc2nc(C(F)(F)F)ccc21 (stereo not shown) [Example 324, 4-Amino-N-[5-deuterio-2-(trifluoromethyl)-6,8-dihydropyrano[3,4-b]pyridin-5-yl]-1-methyl-N'-(trideuteriomethyl)pyrazolo[4,3-c]quinoline-8-hydrazide] | 11.1 | 155 | 0.015 |  |  |  |  |  | 2.38
9 | [2H]C([2H])([2H])NN(C(=O)c1cc2c3c(c(N)nc2cn1)COC3)[C@@]1([2H])COCc2c1ccn1c(C(F)(F)F)cnc21 [Example 354-P1, (R)-4-amino-N'-(methyl-d3)-N-(3-(trifluoromethyl)-7,10-dihydro-8H-imidazo[1,2-a]pyrano[3,4-c]pyridin-7-yl-7-d)-1,3-dihydrofuro[3,4-c][1,7]naphthyridine-8-carbohydrazide] | 11.6 | 107 | 0.023 |  |  |  |  |  | 2.47
10 | [2H]C([2H])([2H])NN(C(=O)c1cc2c3c(c(N)nc2cc1C)COC3)C1COCc2c1ccn1c(C(F)(F)F)cnc21 (stereo not shown) [Example 357, 4-Amino-7-methyl-N'-methyl-d3-N-(3-trifluoromethyl-7,10-dihydro-8H-imidazo[1,2-a]pyrano[3,4-c]pyridin-7-yl)-1,3-dihydrofuro[3,4-c]quinoline-8-carbohydrazide] | 12.2 | 100 | 0.0076 | 1080 | 360 | 2.2 | 0.7 | 1.2 | 0.76
11 | [2H]C([2H])([2H])NN(C(=O)c1ccc2nc(N)c3cnn(C)c3c2c1)C1COCc2c1ccn1c(C(F)(F)F)cnc21 (stereo not shown) [Example 436] | 11.5 | 185 | 0.0089 | 2030 | 143 | 14.9 | 3.3 | 10.8 | 1.64
12 | CNN(C(=O)c1ccc2nc(N)c3cnn(C)c3c2c1)C1COCc2nc(S(F)(F)(F)(F)F)ccc21 (stereo not shown) [Example 448] | 12.3 | 44 | 0.0078 |  |  |  |  |  | 0.344
13 | CNN(C(=O)c1cc2c(cc1C)nc(N)c1cnn(C)c12)C1COc2cc(S(F)(F)(F)(F)F)ccc21 (stereo not shown) [Example 451, 4-Amino-N',1,7-trimethyl-N-(6-(pentafluorosulphanyl)-2,3-dihydrobenzofuran-3-yl)-1H-pyrazolo[4,3-c]quinoline-8carbohydrazide] | 13.7 | 21 | 0.0042 |  |  |  |  |  | 0.089
